One data set relates to ADJ/PC6. Briefly: Compound was tested for dose producing 90% reduction in tumor weight, in ADJ/PC6 mouse plasma cell tumor.
The nature of data set [1]: Compound was tested for dose required to kill 50 % of ADJ/PC6 mouse plasma cell tumor in a group.
A short description of data set [2]: Therapeutic index as the ratio of LD50 to ED50 of the compound.

SMILES strings stand for the structures.

As to `O=P1(N(CCCl)CCCl)NCCCO1` (stereo unspecified) [CYCLOPHOSPHAMIDE ANHYDROUS], the ED90 in the data set with ADJ/PC6 stood at 2.25 mg/kg. In data set [1], the 50% lethal dose (LD50) (as a rule, the dose at which mortality reaches 50%) stood at 260 mg/kg. The selectivity ratio in data set [2] stood at 116.

In the data set on ADJ/PC6, `[2H]C1([2H])CNP(=O)(N(CCCl)CCCl)OC1` (stereo unspecified) displayed an ED90 of 12 mg/kg. Also, the LD50 in data set [1] was determined as 700 mg/kg. Besides, the selectivity ratio in data set [2] was determined as 58.
